ChEMBL document CHEMBL5465560, “Selectivity Literature for EUbOPEN Chemogenomic Library” (2024)

How the values were obtained:
[1] = molecular target: TGF-beta receptor type-2 (Homo sapiens) (UniProt P37173); assay: Selectivity interaction (KinomeScan (DiscoverX)) EUB0000655a TGFBR2; conditions: at 10 µM
[2] = molecular target: Insulin-like growth factor 1 receptor (Homo sapiens, UniProt P08069); assay: Selectivity interaction (KinomeScan (DiscoverX)) EUB0000666a IGF1R; conditions: at 10 µM
[3] = molecular target: Atypical kinase COQ8A, mitochondrial (Homo sapiens, UniProt Q8NI60); assay: Selectivity interaction (KinomeScan (DiscoverX)) EUB0000607a ADCK3; conditions: at 10 µM
Atypical kinase COQ8A, mitochondrial, sequence (Q8NI60 163-647 limits assumed): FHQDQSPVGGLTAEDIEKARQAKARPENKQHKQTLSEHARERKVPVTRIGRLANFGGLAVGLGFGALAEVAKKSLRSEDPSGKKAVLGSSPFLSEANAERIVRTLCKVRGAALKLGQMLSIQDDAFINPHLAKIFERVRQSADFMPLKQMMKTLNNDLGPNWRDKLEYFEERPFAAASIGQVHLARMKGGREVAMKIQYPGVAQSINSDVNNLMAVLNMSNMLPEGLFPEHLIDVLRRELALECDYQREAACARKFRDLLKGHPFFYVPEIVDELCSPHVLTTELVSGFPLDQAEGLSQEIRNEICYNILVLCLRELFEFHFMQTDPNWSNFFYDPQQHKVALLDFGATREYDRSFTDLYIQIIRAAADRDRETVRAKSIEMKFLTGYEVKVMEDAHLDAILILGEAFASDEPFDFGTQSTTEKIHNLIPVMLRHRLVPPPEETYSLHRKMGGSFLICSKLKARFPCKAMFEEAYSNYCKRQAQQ

[4] = molecular target: Tyrosine-protein kinase JAK1 (Homo sapiens, UniProt P23458); assay: Selectivity interaction (KinomeScan (DiscoverX)) EUB0001049a JAK1; conditions: at 1 µM
Tyrosine-protein kinase JAK1, sequence (P23458 whole entry): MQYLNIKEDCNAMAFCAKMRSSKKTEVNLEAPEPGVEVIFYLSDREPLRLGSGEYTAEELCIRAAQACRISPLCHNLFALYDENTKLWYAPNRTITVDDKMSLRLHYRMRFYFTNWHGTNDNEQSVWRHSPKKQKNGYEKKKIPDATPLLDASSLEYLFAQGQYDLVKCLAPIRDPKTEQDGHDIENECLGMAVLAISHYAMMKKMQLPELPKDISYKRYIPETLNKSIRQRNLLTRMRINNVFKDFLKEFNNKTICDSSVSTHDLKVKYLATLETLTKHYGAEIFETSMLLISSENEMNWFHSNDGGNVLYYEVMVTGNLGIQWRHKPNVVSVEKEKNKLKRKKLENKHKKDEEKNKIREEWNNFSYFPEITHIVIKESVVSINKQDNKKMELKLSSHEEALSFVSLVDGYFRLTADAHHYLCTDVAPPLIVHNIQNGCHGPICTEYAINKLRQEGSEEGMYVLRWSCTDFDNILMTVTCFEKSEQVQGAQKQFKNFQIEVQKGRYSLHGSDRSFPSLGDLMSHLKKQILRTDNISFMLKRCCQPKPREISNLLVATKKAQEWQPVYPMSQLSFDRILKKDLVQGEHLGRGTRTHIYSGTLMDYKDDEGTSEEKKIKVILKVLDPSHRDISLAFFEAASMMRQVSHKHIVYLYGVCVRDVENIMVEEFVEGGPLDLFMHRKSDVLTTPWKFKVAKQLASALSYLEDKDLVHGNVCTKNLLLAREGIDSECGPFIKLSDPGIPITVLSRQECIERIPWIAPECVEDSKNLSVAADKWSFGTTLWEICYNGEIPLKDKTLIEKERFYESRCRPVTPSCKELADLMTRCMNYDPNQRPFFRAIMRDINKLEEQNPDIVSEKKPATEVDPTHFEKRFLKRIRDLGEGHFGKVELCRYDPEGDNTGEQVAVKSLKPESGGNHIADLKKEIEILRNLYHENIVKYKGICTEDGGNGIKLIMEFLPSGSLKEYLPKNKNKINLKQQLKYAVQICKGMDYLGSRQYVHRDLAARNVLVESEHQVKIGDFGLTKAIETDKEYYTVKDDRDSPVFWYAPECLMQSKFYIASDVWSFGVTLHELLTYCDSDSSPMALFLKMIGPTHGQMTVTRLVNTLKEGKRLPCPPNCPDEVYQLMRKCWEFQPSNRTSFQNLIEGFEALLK

[5] = molecular target: T1, Mitogen-activated protein kinase kinase kinase 19 (Homo sapiens) (UniProt Q56UN5); assay: Selectivity interaction (KinomeScan (DiscoverX)) EUB0000595a MAP3K19; conditions: at 10 µM
T1 sequence (whole entry): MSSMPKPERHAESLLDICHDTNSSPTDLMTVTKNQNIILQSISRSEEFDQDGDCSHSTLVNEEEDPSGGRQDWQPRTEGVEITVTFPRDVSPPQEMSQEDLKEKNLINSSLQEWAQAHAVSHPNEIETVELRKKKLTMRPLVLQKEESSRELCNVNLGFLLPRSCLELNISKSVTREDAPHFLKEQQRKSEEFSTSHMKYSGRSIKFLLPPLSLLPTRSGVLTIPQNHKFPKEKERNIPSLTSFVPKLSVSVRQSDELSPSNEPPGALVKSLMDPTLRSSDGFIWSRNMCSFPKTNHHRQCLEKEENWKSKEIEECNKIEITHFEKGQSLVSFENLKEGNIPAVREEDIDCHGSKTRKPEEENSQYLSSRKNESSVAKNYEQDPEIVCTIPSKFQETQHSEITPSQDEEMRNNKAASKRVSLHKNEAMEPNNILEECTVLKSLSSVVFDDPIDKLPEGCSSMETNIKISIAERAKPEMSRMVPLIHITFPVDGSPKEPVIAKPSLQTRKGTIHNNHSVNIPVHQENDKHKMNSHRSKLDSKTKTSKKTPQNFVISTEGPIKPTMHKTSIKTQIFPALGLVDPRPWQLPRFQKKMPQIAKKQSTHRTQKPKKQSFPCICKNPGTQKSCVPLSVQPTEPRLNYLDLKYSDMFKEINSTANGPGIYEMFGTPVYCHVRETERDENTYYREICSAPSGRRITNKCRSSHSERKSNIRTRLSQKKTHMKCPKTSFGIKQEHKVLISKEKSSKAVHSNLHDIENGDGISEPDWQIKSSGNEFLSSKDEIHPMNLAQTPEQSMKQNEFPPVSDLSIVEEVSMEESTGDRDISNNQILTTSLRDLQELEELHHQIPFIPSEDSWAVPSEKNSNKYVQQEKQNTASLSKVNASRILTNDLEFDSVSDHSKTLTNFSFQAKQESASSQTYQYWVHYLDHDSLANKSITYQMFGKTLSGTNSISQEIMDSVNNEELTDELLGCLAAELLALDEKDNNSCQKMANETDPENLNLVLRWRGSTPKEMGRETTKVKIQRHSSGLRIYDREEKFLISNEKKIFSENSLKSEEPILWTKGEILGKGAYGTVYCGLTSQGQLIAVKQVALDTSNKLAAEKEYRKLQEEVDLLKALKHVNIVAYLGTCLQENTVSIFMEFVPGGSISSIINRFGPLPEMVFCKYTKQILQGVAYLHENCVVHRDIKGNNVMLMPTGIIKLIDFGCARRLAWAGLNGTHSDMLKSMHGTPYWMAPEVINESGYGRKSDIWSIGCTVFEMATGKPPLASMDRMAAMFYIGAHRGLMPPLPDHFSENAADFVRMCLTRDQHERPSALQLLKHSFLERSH

[6] = molecular target: T2, Serine/threonine-protein kinase D3 (Homo sapiens) (UniProt O94806); assay: Selectivity interaction (KinomeScan (DiscoverX)) EUB0000045b PRKD3
T2 sequence (whole entry): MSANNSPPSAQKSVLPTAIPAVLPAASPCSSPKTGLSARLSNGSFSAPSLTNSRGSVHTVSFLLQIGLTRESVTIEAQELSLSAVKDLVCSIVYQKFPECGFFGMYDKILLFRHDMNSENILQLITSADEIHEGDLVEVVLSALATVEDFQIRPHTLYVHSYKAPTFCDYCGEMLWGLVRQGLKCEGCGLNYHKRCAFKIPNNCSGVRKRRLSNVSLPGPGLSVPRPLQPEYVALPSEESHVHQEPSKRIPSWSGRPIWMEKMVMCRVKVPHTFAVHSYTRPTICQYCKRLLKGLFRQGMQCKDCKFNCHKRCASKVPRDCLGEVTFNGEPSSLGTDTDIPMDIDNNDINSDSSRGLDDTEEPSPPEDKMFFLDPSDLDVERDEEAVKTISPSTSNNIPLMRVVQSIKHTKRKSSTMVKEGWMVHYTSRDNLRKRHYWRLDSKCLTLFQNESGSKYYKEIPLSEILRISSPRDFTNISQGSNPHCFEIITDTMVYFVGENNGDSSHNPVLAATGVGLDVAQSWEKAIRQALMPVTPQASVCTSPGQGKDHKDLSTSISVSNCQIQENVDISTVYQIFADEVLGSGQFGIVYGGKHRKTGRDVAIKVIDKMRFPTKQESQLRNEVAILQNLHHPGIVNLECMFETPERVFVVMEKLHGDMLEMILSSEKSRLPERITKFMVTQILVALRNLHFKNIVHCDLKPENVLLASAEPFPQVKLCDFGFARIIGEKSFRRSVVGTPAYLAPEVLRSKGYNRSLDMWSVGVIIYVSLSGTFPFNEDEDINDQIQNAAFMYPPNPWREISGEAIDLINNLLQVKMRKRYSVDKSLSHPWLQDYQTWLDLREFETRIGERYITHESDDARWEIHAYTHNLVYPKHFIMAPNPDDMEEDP

[7] = molecular target: Fibroblast growth factor receptor 1 (Homo sapiens, UniProt P11362); assay: Selectivity interaction (KinomeScan (DiscoverX)) EUB0001619a FGFR1; conditions: at 1 µM
Fibroblast growth factor receptor 1, sequence (P11362 22-822 limits assumed): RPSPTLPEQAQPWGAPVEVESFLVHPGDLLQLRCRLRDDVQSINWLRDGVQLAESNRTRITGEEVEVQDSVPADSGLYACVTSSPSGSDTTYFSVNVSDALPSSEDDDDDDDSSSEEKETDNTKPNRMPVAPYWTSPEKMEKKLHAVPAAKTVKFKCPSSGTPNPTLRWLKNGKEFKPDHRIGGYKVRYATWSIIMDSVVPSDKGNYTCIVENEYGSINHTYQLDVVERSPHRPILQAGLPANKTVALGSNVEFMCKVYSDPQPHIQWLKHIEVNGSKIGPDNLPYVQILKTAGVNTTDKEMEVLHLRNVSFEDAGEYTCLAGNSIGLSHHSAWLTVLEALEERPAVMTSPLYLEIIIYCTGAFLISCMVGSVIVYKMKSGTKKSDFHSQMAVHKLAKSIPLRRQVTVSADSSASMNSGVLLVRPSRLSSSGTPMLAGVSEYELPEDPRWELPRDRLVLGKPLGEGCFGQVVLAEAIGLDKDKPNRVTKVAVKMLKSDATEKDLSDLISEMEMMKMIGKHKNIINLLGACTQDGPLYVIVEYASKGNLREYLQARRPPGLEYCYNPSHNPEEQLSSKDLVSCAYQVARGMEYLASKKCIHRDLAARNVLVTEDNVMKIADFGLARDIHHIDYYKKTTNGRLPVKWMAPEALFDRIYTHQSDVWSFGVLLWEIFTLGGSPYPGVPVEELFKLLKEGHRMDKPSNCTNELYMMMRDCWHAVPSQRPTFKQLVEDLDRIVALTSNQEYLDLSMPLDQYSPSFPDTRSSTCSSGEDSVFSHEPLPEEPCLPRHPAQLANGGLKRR

Insulin-like growth factor 1 receptor, sequence (P08069 31-736 limits assumed): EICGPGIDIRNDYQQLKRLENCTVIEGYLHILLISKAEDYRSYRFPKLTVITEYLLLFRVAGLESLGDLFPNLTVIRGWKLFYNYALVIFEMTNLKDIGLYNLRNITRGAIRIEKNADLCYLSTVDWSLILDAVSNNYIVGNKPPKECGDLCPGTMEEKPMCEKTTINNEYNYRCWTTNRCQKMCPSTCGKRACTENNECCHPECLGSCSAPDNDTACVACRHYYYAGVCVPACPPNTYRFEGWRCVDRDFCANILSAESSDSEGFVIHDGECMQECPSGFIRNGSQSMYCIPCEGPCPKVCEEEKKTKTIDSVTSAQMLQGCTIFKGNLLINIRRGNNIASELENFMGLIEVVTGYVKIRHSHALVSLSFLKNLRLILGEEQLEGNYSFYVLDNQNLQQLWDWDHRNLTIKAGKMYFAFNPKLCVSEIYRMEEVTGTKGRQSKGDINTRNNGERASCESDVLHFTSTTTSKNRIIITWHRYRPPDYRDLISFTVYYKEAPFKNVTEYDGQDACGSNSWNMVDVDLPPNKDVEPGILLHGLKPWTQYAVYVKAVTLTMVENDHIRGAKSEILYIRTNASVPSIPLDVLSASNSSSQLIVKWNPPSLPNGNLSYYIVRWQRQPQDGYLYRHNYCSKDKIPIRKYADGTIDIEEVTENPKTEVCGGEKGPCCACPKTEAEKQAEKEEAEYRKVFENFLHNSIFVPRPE
Insulin-like growth factor 1 receptor, sequence (P08069 741-1367 limits assumed): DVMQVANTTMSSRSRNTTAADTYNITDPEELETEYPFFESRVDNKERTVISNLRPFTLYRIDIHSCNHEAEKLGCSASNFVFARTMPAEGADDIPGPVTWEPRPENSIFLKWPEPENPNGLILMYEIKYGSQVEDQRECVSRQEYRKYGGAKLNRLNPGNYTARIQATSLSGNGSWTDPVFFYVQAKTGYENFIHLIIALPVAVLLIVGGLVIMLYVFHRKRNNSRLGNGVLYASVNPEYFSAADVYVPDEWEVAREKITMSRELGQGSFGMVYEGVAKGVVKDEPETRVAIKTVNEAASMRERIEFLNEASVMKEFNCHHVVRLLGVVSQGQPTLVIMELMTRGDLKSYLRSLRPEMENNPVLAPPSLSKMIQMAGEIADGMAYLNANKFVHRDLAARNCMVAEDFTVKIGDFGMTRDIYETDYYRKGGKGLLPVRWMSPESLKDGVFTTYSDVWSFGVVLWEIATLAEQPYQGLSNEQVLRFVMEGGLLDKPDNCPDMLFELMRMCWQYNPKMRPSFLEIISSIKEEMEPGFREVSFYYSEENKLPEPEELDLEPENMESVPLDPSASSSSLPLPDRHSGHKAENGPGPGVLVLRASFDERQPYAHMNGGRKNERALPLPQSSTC
TGF-beta receptor type-2 (Homo sapiens), sequence (P37173 whole entry): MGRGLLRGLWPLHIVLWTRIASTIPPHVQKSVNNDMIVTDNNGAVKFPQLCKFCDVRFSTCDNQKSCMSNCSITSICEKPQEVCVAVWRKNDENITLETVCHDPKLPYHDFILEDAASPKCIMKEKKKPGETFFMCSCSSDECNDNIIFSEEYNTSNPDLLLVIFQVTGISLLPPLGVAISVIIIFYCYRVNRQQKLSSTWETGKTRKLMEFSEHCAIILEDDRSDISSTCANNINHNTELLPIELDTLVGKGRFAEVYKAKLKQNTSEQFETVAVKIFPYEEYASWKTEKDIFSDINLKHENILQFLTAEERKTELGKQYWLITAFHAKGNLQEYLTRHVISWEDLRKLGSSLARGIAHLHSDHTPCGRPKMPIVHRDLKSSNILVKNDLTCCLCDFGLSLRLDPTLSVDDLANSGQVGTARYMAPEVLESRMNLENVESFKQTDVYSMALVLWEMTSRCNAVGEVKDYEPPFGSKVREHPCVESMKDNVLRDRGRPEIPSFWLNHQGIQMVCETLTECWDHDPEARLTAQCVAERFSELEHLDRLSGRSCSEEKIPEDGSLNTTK

Question: For CN(C)CCOc1ccc(-c2nc(-c3ccncc3)c(-c3ccc4c(c3)CC/C4=N\O)[nH]2)cc1, which % of control [1] is on record?
Answer: The % of control was 44%.

Question: How did the % of control [2] turn out when O=C(NOC[C@H](O)CO)c1ccc(F)c(F)c1Nc1ccc(I)cc1F was run?
Answer: The % of control was 87%.

Question: With CNC(=O)Nc1ccc(-c2nc(N3CC4CCC(C3)O4)c3cnn(C4CCC5(CC4)OCCO5)c3n2)cc1 as the molecule, how does the % of control [3] read?
Answer: The % of control was 86%.

Question: For COc1cc(Nc2nc(C)cc(-c3cnn4nc(OC)ccc34)n2)cc(C(F)(F)F)c1, which % of control [4] is on record?
Answer: Its % of control is 85%.

Question: Which % of control [5] does the source give for COCC(=O)NC/C=C/c1ccc2ncnc(Nc3ccc(Oc4ccc(C)nc4)c(C)c3)c2c1 [CP-724714] here?
Answer: The % of control was 100%.

Question: How did the % of control ([6]; at 1 µM) turn out when C=CC(=O)Nc1cc(-n2c(=O)ccc3cnc4ccc(-c5ccc(NS(C)(=O)=O)cc5)cc4c32)ccc1C was run?
Answer: Its % of control is 82%.

Question: And the % of control ([6]; at 10 µM)?
Answer: The % of control was 68%.

Question: With N#Cc1cccc(-c2c[nH]c3ncnc(N4CCOCC4)c23)c1 as the molecule, how does the % of control [7] read?
Answer: Its % of control is 100%.
